≈ marks a conversion by molar mass, not a printed value. Like-named read-outs stand apart in the source and are kept apart here. Blank lines part the entries; values can stand above or below the compound they belong to.
Key:
[1] = tested on: Escherichia coli MG1655; assay: Antibiotic MIC determination (serial twofold dilutions, OD600 during 17 hours at 37° C.); assay type: cell-based; settings: for MIC: Escherichia coli
Procedure: The Minimal Inhibitory Concentration (MIC) of the antibiotics was determined under the same culture conditions as the tests using the ATP assay kit. […] An exponentially growing culture (OD600=0.3) was added to each well (60 μl/well) of a sterile microtiter plate containing the test concentration of antibiotic (40 μl/well). The volume was completed to 120 μl with medium and OD600 nm measurements were performed using a microtiter plate reader (Infinite 200 PRO, TECAN) during 17 hours at 37° C.
In all the following experiments, the MIC values were measured for each antibiotic with parameters such as temperature, OD600 and equipment identical to those used for the bioluminescence assay.

[2] = tested on: E. coli MG1655 reporter cells; assay type: cell-based, Escherichia coli; settings: LB; for Lag time before ATP: 37° C.
Procedure: The classical luciferase was from Molecular Probes (ATP Determination Kit (A22066)). The thermostable luciferase was from “CheckLite AT100” (kikkoman). The Luciferin-luciferase reagents were prepared following manufacturer instructions. Bacteria from exponentially growing cultures (OD600=0.3) were added to each well (60 μl/well) of a black 96-microtiter plate (Greiner Bio-one, 655076) and 20 μl of the luciferin-luciferase reagent solution was added. The microtiter plate was incubated 5 min at 37° C. for reaction with the luciferase to eliminate traces of extracellular ATP. Then 40 μl of antibiotic solution (3 times concentrated) prepared in the culture medium were added. Bioluminescence of each well was monitored for 4 hours under shaking (218 rpm) and at 28 or 37° C., depending on the experiments (see legends of Figures). The reagent stability in presence or absence of antibiotics was checked in control experiments without bacteria but with 4 pmoles of ATP. Tests were also performed in 384-microtiter plates (Greiner Bio-one, 784076).
Aminoglycosides are bactericidal antibiotics causing translational miscoding with lethal consequences for the cell. Leakage of small molecules following an aminoglycoside shock was previously identified by different methods including radiolabelling. Therefore, the inventors investigated the response of live cells to aminoglycoside stress.

[3] = MG1655, read-out: MIC in MOPS glucose 0.4%, MOPS minimal medium glucose 0.4%, 37° C.
[4] = MG1655, LB medium, OD600 0.15 final, 37° C., read-out: MIC in LB

Compound: C[C@@H]1O[C@@H]1P(=O)(O)O [Fosfomycin]
MIC [1, 3]: 100 µg/mL (≈ 724 µM)
MIC [1, 4]: 50 µg/mL (≈ 362 µM)
Lag time before ATP ([2]; antibiotic at 12.5 μg/mL): 28.6 min
Lag time before ATP ([2]; antibiotic at 25 μg/mL): 26.2 min
Lag time before ATP ([2]; antibiotic at 50 μg/mL): 21.8 min
Lag time before ATP ([2]; antibiotic at 100 μg/mL): 20.2 min
Lag time before ATP ([2]; antibiotic at 200 μg/mL): 18.6 min

Compound: CCn1cc(C(=O)O)c(=O)c2ccc(C)nc21 [Nalidixic acid]
MIC ([1]; MG1655, read-out: MIC in LB): 256 µg/mL (≈ 1100 µM)
MIC ([1]; MG1655, read-out: MIC in MOPS glucose 0.4%): 256 µg/mL (≈ 1100 µM)
Lag time before ATP ([2]; antibiotic at 16 μg/mL): 127.3 min
Lag time before ATP ([2]; antibiotic at 32 μg/mL): 114.1 min
Lag time before ATP ([2]; antibiotic at 64 μg/mL): 88.9 min
Lag time before ATP ([2]; antibiotic at 128 μg/mL): 79.1 min
Lag time before ATP ([2]; antibiotic at 258 μg/mL): 50.8 min
Lag time before ATP ([2]; antibiotic at 516 μg/mL): 46.4 min

Compound: CC[C@H]1OC(=O)[C@H](C)[C@@H](O[C@H]2C[C@@](C)(OC)[C@@H](O)[C@H](C)O2)[C@H](C)[C@@H](O[C@@H]2O[C@H](C)C[C@H](N(C)C)[C@H]2O)[C@](C)(O)C[C@@H](C)C(=O)[C@H](C)[C@@H](O)[C@]1(C)O [Erythromycin]
MIC [1, 3]: 1600 µg/mL (≈ 2180 µM)
MIC [1, 4]: 400 µg/mL (≈ 545 µM)
Amplitude of ATP release ([2]; bacteriostatic antibiotics, FIG. 9): very weak amplitude

Compound: CC1(C)S[C@@H]2[C@H](NC(=O)[C@H](N)c3ccc(O)cc3)C(=O)N2[C@H]1C(=O)O [Amoxicillin]
MIC [1, 3]: 12.5 µg/mL (≈ 34.2 µM)
MIC [1, 4]: 12.5 µg/mL (≈ 34.2 µM)
Lag time before ATP ([2]; antibiotic at 3.125 μg/mL): 39.3 min
Lag time before ATP ([2]; antibiotic at 6.25 μg/mL): 31.4 min
Lag time before ATP ([2]; antibiotic at 12.5 μg/mL): 11.4 min
Lag time before ATP ([2]; antibiotic at 25 μg/mL): 8 min
Lag time before ATP ([2]; antibiotic at 50 μg/mL): 6.9 min

Compound: Bleomycin
MIC in LB ([1]; LB medium, OD600 0.15 final, 37° C.): 100 µg/mL
MIC in MOPS glucose 0.4% ([1]; MOPS minimal medium glucose 0.4%, 37° C.): 200 µg/mL
Lag time before ATP ([2]; antibiotic at 25 μg/mL): 164.0 min
Lag time before ATP ([2]; antibiotic at 50 μg/mL): 142.0 min
Lag time before ATP ([2]; antibiotic at 100 μg/mL): 98.0 min
Lag time before ATP ([2]; antibiotic at 200 μg/mL): 78.0 min
Lag time before ATP ([2]; antibiotic at 400 μg/mL): 71.5 min

Results, then the compound that gave them:

MIC [1, 4]: 200 µg/mL (≈ 386 µM)
Compound: CCN1CCN(C(=O)N[C@@H](C(=O)N[C@@H]2C(=O)N3[C@@H]2SC(C)(C)[C@@H]3C(=O)O)c2ccccc2)C(=O)C1=O [Piperacillin]

MIC [1, 4]: 200 µg/mL (≈ 326 µM)
Compound: CO[C@@H]1[C@@H](OC(N)=O)[C@@H](O)[C@H](Oc2ccc3c(O)c(NC(=O)c4ccc(O)c(CC=C(C)C)c4)c(=O)oc3c2C)OC1(C)C [Novobiocin]

MIC [1, 3]: 50 µg/mL (≈ 210 µM)
MIC [1, 4]: 50 µg/mL (≈ 210 µM)
Compound: O=C1CN(/N=C/c2ccc([N+](=O)[O-])o2)C(=O)N1 [Nitrofurantoin]

MIC [1, 3]: 6.25 µg/mL (≈ 18.9 µM)
MIC [1, 4]: 25 µg/mL (≈ 75.4 µM)
Compound: O=C(O)c1cn(C2CC2)c2cc(N3CCNCC3)c(F)cc2c1=O [Ciprofloxacin]

MIC [1, 3]: 1600 µg/mL (≈ 6320 µM)
Compound: Cc1cc(NS(=O)(=O)c2ccc(N)cc2)no1 [Sulfamethoxazole]

From patent publication US12595504B2, “Methods for screening compounds for bactericidal activity and for determining the sensitivity of bacterial samples” (priority 2020, dated 2026)
